In the assay the test system is Human lung cancer cells Spc-A1. Description: MTT method, anti-proliferation on lung cancer cell line SPC-A1. The settings on record: for Inhibition rate (%) / OD value: 5Fu 10^−4 mol/L; for OD value: A at 490 nm, x ± s, n = 5. It counts as cell-based. On the procedure:
Human lung cancer cells Spc-A1 (hereinafter referred to as SPC), is purchased from Wuhan Cell Collection Center (cell bank of China Center for Type CultureCollection).
The tumor cells are placed in the RPMI-1640 complete medium including 10% fetal calf serum and are cultured at 37° C. under 5% CO2 incubator. When the cell growth reaches the logarithmic phase (approximately 80% integration), cells are subcultured. The experiments are divided into negative control group (RPMI-1640), positive drug group (5Fu, 10^−4 mol·L^−1) and reagent group of Smilaxchinoside F at different concentrations, which are prepared by Guilin Sanjin Pharmaceutical Co., Ltd, in accordance with example 1 of the present invention.
5×10^7·L^−1 cells at logarithmic phase are seeded in 96-well plates, each well 180 μL. After culturing for 24 h, medicine is added, each well 20 μL, five parallel wells for each group. On 4 hours before the end of culture, 20 μL of 5 g·L^−1 MTT solution is added to the each well. After the end of the culture (48 h and 72 h), the supernatant is discarded. 150 μL of DMSO is added to each wells; the optical density (A value) of each well is detected by a microplate reader at 490 nm; the tumor suppression percentage is calculated.
A general note: Tetrazolium assays rely on reduction of a dye to a coloured formazan, in cell work by metabolically active cells.

Several values for one entry are separate records, joined by “and”; a condition that tells them apart may be missing. Equal values may be shown once.

Regarding `O=c1[nH]cc(F)c(=O)[nH]1` [5Fu], the “Effect on SPA (lung cancer) cell proliferation in vitro, in words” value was “significant anti-tumor effect”. Under “48 h”, the “Inhibition rate (%)” value is 39.4% and 39.37%; the OD value was 0.372 ± 0.031. Further, under “72 h”, the “Inhibition rate (%)” value was 59.6% and 59.61%; the OD value is recorded as 0.295 ± 0.026.

(Values after patent US8648180B2, “Compound Smilaxchinoside F” (Guilin Sanjin Pharmaceuticals Co., Ltd., priority 2010, dated 2014).)
